Earlier results, collected in patent publication US10314832B2, “β- and γ-diketones and γ-hydroxyketones as Wnt/β-catenin signaling pathway activators” (Samumed, LLC, priority 2010, dated 2019).

How the values were obtained:
[1] = topical solution, patients with age-related hair loss; cited from earlier work
[2] = tested on: dedifferentiated Müller glia; conditions: photoreceptor-damaged retina; cited from earlier work

**Q.** With `Nc1cc(N2CCCCC2)nc(N)[n+]1[O-]` [minoxidil] as the molecule, how does the “patients with moderate regrowth of hair” value [1] read?
**A.** The value was “less than 40%”.

B1: Wnt3a: Wnt ligand protein; soluble peptide agonist of LRP5 and Fzd co-receptors (protein, UniProt P56704 19-352, looked up)
Protein Wnt-3a: SYPIWWSLAVGPQYSSLGSQPILCASIPGLVPKQLRFCRNYVEIMPSVAEGIKIGIQECQHQFRGRRWNCTTVHDSLAIFGPVLDKATRESAFVHAIASAGVAFAVTRSCAEGTAAICGCSSRHQGSPGKGWKWGGCSEDIEFGGMVSREFADARENRPDARSAMNRHNNEAGRQAIASHMHLKCKCHGLSGSCEVKTCWWSQPDFRAIGDFLKDKYDSASEMVVEKHRESRGWVETLRPRYTYFKVPTERDLVYYEASPNFCEPNPETGSFGTRDRTCNVSSHGIDGCDLLCCGRGHNARAERRREKCRCVFHWCCYVSCQECTRVYDVHTCK
**Q.** Which “increase in proliferation of dedifferentiated Müller glia” value [2] does the source give for B1 here?
**A.** Its value is > 20 fold.
